Experimental data taken from patent US7087575B2, “Treating the effect of nicotine” (Mayo Foundation for Medical Education and Research, priority 2002, dated 2006).

Key:
Sprague Dawley rats = experiment: Nicotine-induced locomotor activity, daily treatment for 15 days; format: in vivo, rat
Protocol: (§1) Animals and treatment protocol: Male Sprague-Dawley rats weighing 200–250 g were housed in a temperature-controlled room with free access to food and water under artificial 12 hour light/dark cycle. All tests were conducted during the light cycle. The animals received an intraperitoneal (i.p.) injection of either NT69L (1 mg/kg) or an equivalent volume (100 μl) of saline. Thirty minutes after the first injection, the rats received subcutaneous (s.c.) injections of saline or nicotine (0.35 mg/kg). These injections were repeated once a day for 15 days. On days 1 and 15, rats were placed in a Plexiglass Opto-Varimax Minor motility chamber (Columbus Instruments, Columbus, Ohio) and allowed to acclimate for one hour. Baseline activity was recorded for 30 minutes for each rat. The rats then were injected with either saline or NT69L and replaced in the chamber. After 30 minutes, each rat was injected with either saline or nicotine and returned to the chamber. Activity was recorded for 60 minutes. After testing for locomotor activity on day 15, animals were sacrificed. Brain sections were dissected on ice and maintained on dry ice until they were frozen at −80° C., at which temperature they were stored until being assayed. [^3H] cytisine binding: Nicotinic receptor binding sites in membrane homogenates of frozen tissue were measured using [^3H] cytisine according to the method of Pabreza et al. [(1991) Mol. Pharmacol. 39:9–12]. Frozen tissue was resuspended in 50 mM Tris-HCl buffer (pH 7.4), homogenized with a Brinkmann Polytron (setting 6), and washed twice in fresh Tris buffer by centrifugation at 35000×g. The resulting pellets were resuspended in buffer. Aliquots of homogenates were added to tubes containing [^3H] cytisine in the presence or absence of 100 μM nicotine and incubated in a final volume of 250 μl for 75 minutes at 4° C. The binding reactions were terminated by filtration through GF/B filter paper that was mounted on a Brandel cell harvester. Filters were presoaked in 0.5% polyethylenimine to reduce binding of radioligand to the filter. The filters were washed 3 times with cold 0.9% NaCl and counted in a scintillation counter. The data were analyzed using the PC version of the ligand software program. Specific binding was defined as the difference between binding in the presence and absence of 100 μM nicotine.
Sprague Dawley rats were divided into seven groups and injected daily for 14 days with the treatment listed outside the parentheses under each pair of columns in FIG. 1. On day 15, the rats were injected with the treatment listed inside the parentheses under each pair of columns. Locomotor activity was recorded on days 1 and 15. Rats were placed in a motility chamber for one hour for acclimation. A 30 minute baseline was recorded for each rat. The rats were injected with either saline or NT69L and placed in the chamber for 30 minutes. Each rat was then removed from the chamber, injected with either nicotine or saline, and returned to the chamber. Activity was recorded for 60 minutes, and is shown in counts per 10 minute interval.

[1] = test system: Nicotinic receptor binding sites; experiment: [3H] cytisine binding in brain membrane homogenates after in vivo treatment; design: species or system rat; conditions: for increase in cytisine binding in the VTA: vs saline control, only chronic injection of NT69L significant (P<0.05)
Protocol: as §1
Sprague Dawley rats were maintained and treated as described above. Animals were sacrificed on day 15 after being tested for locomotor activity. PFC and VTA sections were harvested on ice and frozen at −80° C until being assayed for cytisine binding as described in Example 1.

[2] = test system: dopamine and its metabolites; experiment: Dopamine and metabolites in striatum and PFC by HPLC-EC after in vivo treatment; design: species or system rat
Protocol: Striatal dopamine: Brain dopamine levels were analyzed using high performance liquid chromatography with electrochemical detection (HPLC-EC, ESA, Inc., Chemsford, Mass.), according to previously described procedures (Kilts et al. (1981) J. Chromatogr. 225:347–357; and Krstulovic (1982) J. Chromatogr. 229:1–34). Rats were sacrificed by decapitation, brains were removed, and the striatal tissue was weighed and homogenized in 10 volumes of ice-cold 0.1 N perchloric acid containing 10 mM EDTA. Tissue homogenates were centrifuged at 26,000×g for 10 minutes at 4° C. A 20 μl aliquot of the diluted supernatant was injected onto an HPLC system with an MD-150/RP-C18 column (ESA). The mobile phase contained 10% acetonitrile with 75 mM sodium dihydrogen phosphate, 1.7 mM 1-octane sulfonic acid sodium salt, 0.01% triethylamine, and 25 μM EDTA, pH 3.0. The flow rate was maintained at 0.5 ml/minute. The detector potentials were set at: 350 mV; E1:−175 mV and E2:250 mV. The concentration of dopamine in each sample was quantified by comparison of area under curve (AUC) between samples and external standards run on the same day.
Sprague Dawley rats were treated as described above. Animals were sacrificed on day 15 after being tested for locomotor activity. Striatal and PFC tissues were harvested on ice and frozen at −80° C. until being assayed for dopamine metabolism as detailed in Example 1.

norepinephrine = experiment: Norepinephrine levels in brain tissue after in vivo treatment; design: species or system rat
Protocol: Sprague Dawley rats were treated as described above. Animals were sacrificed on day 15 after being tested for locomotor activity. PFC sections were harvested on ice and frozen at −80° C. until being assayed for norepinephrine levels.

rats = experiment: Nicotine sensitization, weekly treatment for six weeks, locomotor activity; format: in vivo, rat
Protocol: as §1
For a longer term study of nicotine sensitization, rats were divided into seven groups that were treated once a week for six weeks with saline or NT69L followed by a challenge with saline or 0.35 mg/kg nicotine. These experiments allowed examination of both the initiation and expression phases of sensitization. Group 1 received saline/saline each week. Group 2 received saline/saline for the first five weekly treatments, and saline/nicotine in the sixth week. Group 3 received saline/nicotine each week. Group 4 received NT69L/saline each week. Group 5 received NT69L/nicotine each week. Group 6 received NT69L/nicotine for the first five weekly treatments, and saline/nicotine in the sixth week. Group 7 received saline/nicotine for the first five weekly treatments, and NT69L/nicotine in the sixth week. Locomotor activity was measured after each weekly treatment, as described in Example 1.

dopamine D2 receptor = experiment: Dopamine D2 receptor binding assay ([3H] raclopride) in striatum after in vivo treatment; design: species or system rat
Protocol: Dopamine D2 receptor binding assay: Homogenized brain tissue was assayed for dopamine D2 receptor binding by the method of Bowden et al. [(1997) Brain Res. 752:227–233]. Briefly, brain tissue was homogenized in buffer (50 mM Tris-HCl, 5 mM KCl and 120 mM NaCl, pH 7.5) and centrifuged at 26,000×g for 10 minutes at 4° C. Pellets were resuspended in buffer to 1 mg/10 μl and immediately used for binding. Aliquots of […] tissue homogenates were added to 25 PI [^3H] raclopride and 25 μl buffer (for total binding) or 25 μl of […] sulipride (for nonspecific binding) in a total volume of 250 μl, and incubated at room temperature for 90 minutes. Membrane-bound radioactivity was recovered by filtration under vacuum through Whatman GF/B filters using a Brandel cell harvester. Filters were washed with ice-cold PBS and radioactivity was determined by liquid scintillation counting. Protein levels were quantified using the Micro BCA assay (Pierce, Rockford, Ill.).

For `CN1CCCC1c1cccnc1` (stereo not shown) [nicotine], the “increase in peak activity (sensitization)” value (Sprague Dawley rats; daily nicotine injections, day 1 vs. day 15) was > 60%, the “peak level of locomotor activity” value (Sprague Dawley rats; single injection of nicotine 0.35 mg/kg s.c. vs control group sal/sal(sal/sal), P<0.001) was “significantly increased” and the “increase of cytisine binding in prefrontal cortex” value ([1]; fifteen daily injections of nicotine vs saline control, P<0.05) was 62%. The “cytisine binding in the PFC” value ([1]; single nicotine injection on day 15 vs sal/sal(sal/sal)) was “tended to increase cytisine binding in the PFC, but not to a significant level”, the “increase in cytisine binding in the VTA” value [1] was 35% and the “levels of dopamine and its metabolites as compared to saline control” value ([2]; PFC, fifteen daily injections of nicotine) was 232%. For the same molecule, the “increase in levels of dopamine and its metabolites” value ([2]; PFC, single injection of nicotine, P<0.05) was 400%, the “increase in striatal dopamine levels” value ([2]; striatum, single injection of nicotine vs sal/sal(sal/sal), P<0.05) was 192% and the “increase of norepinephrine levels in the PFC” value (norepinephrine; acute and chronic treatment with nicotine vs saline control, P<0.05) was 213–300%. The “locomotor activity after nicotine challenge without NT69L” value (rats; nicotine 0.35 mg/kg in the sixth week only (group 2)) was “resulted in hyperactivity” and the “locomotor activity after nicotine challenge without NT69L” value (rats; nicotine challenge each week (group 3)) was “resulted in increased activity”.

For “N-methyl-Arg-Lys-Pro-L-neo-Trp-tert-Leu-Leu [NT69L]”, the “reduction of nicotine-induced hyperactivity” value (Sprague Dawley rats; acute injection of NT69L 1 mg/kg i.p. on day 1, 30 minutes prior to nicotine, P<0.001) was 24%, the “reduction of the magnitude of locomotor sensitization” value (Sprague Dawley rats; daily injection of NT69L) was 24% and the “locomotor activity 69/sal vs sal/sal groups (sedation)” value (Sprague Dawley rats; day 1, NT69L 1 mg/kg i.p. without nicotine) was “no significant difference”. The “activity compared with saline after fifteen days of treatment” value (Sprague Dawley rats; sal/nic(sal/nic) vs. 69/nic(69/nic), P<0.05) was “statistically significant reduction in activity”, the “sensitized nicotine-induced activity after NT69L” value (Sprague Dawley rats; single injection of NT69L 30 minutes prior to nicotine on the fifteenth day of nicotine administration, P<0.001) was 10 % of control and the “reduction of cytisine binding caused by acute nicotine injection” value ([1]; PFC, NT69L daily for 15 days, acute, but not chronic, nicotine) was 62%. The “reduction of the increase in cytisine binding caused by 15 daily injections of nicotine” value ([1]; PFC, acute injection of NT69L prior to nicotine on day fifteen) was 65%, the “increase in cytisine binding in the VTA” value [1] was 35% and the “lowering of the nicotine-induced increase in dopamine” value ([2]; PFC, injection of NT69L for 15 days) was 62%. For the same molecule, the “lowering of the nicotine-induced increase in dopamine” value ([2]; PFC, pretreating with NT69L before nicotine injection on day 15) was 28%, the “effect on dopamine levels in the striatum” value ([2]; pretreatment with NT69L) was “did not significantly affect” and the “dopamine (D2) receptor binding in striatum across nicotine and NT69L treatment groups” value (dopamine D2 receptor) was “No difference”. The “reduction in norepinephrine levels” value (norepinephrine; PFC, daily injections of NT69L, single injection of nicotine) was 40%, the “norepinephrine in the striatum between treatment groups” value (norepinephrine; striatum) was “No significant differences” and the “effect on nicotine-induced hyperactivity” value (rats; NT69L before nicotine challenge each week (group 5)) was “largely prevented the hyperactivity”. For the same molecule, the “activity after NT69L in the sixth week” value (rats; five weeks nicotine without NT69L, then NT69L/nicotine in week six (group 7)) was “significant decrease in activity” and the “initiation and expression of nicotine sensitization” value (rats; weekly treatment for six weeks) was “effectively blocked”.
